Experiments:
Test in all cases: relative viability (nuclei count vs DMSO), 5 days (fraction); higher = more cells survive
Ibrutinib + Foretinib = compound: C=CC(=O)N1CCC[C@@H](n2nc(-c3ccc(Oc4ccccc4)cc3)c3c(N)ncnc32)C1 [Ibrutinib] + COc1cc2c(Oc3ccc(NC(=O)C4(C(=O)Nc5ccc(F)cc5)CC4)cc3F)ccnc2cc1OCCCN1CCOCC1 [Foretinib] (partner 0.25 µM)
Procedure, shortened: (§1)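 Each reported value is a median over duplicate plates. It expresses relative viability: treated-well nuclei count divided by vehicle-well nuclei count. Lung cancer cell lines in 1536-well plates were dosed by pin tool a day after seeding, alone with one drug or with a fixed anchor-drug dose plus five library-drug doses (not always all listed) in √10 steps, and nuclei were counted after 5 days.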

Ibrutinib + Trametinib = compound: C=CC(=O)N1CCC[C@@H](n2nc(-c3ccc(Oc4ccccc4)cc3)c3c(N)ncnc32)C1 [Ibrutinib] + CC(=O)Nc1cccc(-n2c(=O)n(C3CC3)c(=O)c3c(Nc4ccc(I)cc4F)n(C)c(=O)c(C)c32)c1 [Trametinib] (partner 0.02 µM)
Procedure, shortened: as §1

Ibrutinib + Dasatinib = compound: C=CC(=O)N1CCC[C@@H](n2nc(-c3ccc(Oc4ccccc4)cc3)c3c(N)ncnc32)C1 [Ibrutinib] + Cc1nc(Nc2ncc(C(=O)Nc3c(C)cccc3Cl)s2)cc(N2CCN(CCO)CC2)n1 [Dasatinib] (partner 0.075 µM)
Procedure, shortened: as §1

Ibrutinib + Tozasertib = compound: C=CC(=O)N1CCC[C@@H](n2nc(-c3ccc(Oc4ccccc4)cc3)c3c(N)ncnc32)C1 [Ibrutinib] + Cc1cc(Nc2cc(N3CCN(C)CC3)nc(Sc3ccc(NC(=O)C4CC4)cc3)n2)n[nH]1 [Tozasertib] (partner 0.1 µM)
Procedure, shortened: as §1

Cell Line	relative viability (Ibrutinib + Foretinib; first compound 0.005 µM)	relative viability (Ibrutinib + Foretinib; first compound 0.01581 µM)	relative viability (Ibrutinib + Foretinib; first compound 0.05 µM)	relative viability (Ibrutinib + Foretinib; first compound 0.1581 µM)	relative viability (Ibrutinib + Foretinib; first compound 0.5 µM)	relative viability (Ibrutinib + Trametinib; first compound 0.005 µM)	relative viability (Ibrutinib + Trametinib; first compound 0.01581 µM)	relative viability (Ibrutinib + Trametinib; first compound 0.05 µM)	relative viability (Ibrutinib + Trametinib; first compound 0.1581 µM)	relative viability (Ibrutinib + Trametinib; first compound 0.5 µM)	relative viability (Ibrutinib + Dasatinib; first compound 0.005 µM)	relative viability (Ibrutinib + Dasatinib; first compound 0.01581 µM)	relative viability (Ibrutinib + Dasatinib; first compound 0.05 µM)	relative viability (Ibrutinib + Dasatinib; first compound 0.1581 µM)	relative viability (Ibrutinib + Dasatinib; first compound 0.5 µM)	relative viability (Ibrutinib + Tozasertib; first compound 0.005 µM)	relative viability (Ibrutinib + Tozasertib; first compound 0.01581 µM)	relative viability (Ibrutinib + Tozasertib; first compound 0.05 µM)	relative viability (Ibrutinib + Tozasertib; first compound 0.1581 µM)	relative viability (Ibrutinib + Tozasertib; first compound 0.5 µM)
SK-LU-1	0.857	0.804	0.814	0.926	0.719	0.393	0.501	0.472	0.536	0.454	0.179	0.162	0.17	0.183	0.162	0.363	0.252	0.399	0.347	0.33
NCI-H2170	1.06	0.858	0.951	1.01	0.377	0.806	0.744	0.637	0.955	0.184	0.464	0.413	0.209	0.447	0.211	0.676	0.748	0.519	0.63	0.23
RERF-LC-KJ	0.97	0.707	0.841	0.895	0.845	0.956	0.815	1.09	0.822	0.742	0.936	0.637	0.757	0.85	0.88	0.59	0.5	0.467	0.537	0.544
LXF-289	0.946	0.958	0.995	0.917	0.956	0.703	0.649	0.689	0.694	0.722	0.26	0.14	0.275	0.325	0.176	0.22	0.192	0.164	0.248	0.197
LC-2-ad	0.958	0.747	0.856	0.886	0.836	0.914	0.907	–	0.929	0.863	0.315	0.608	0.637	0.49	0.565	0.497	0.413	0.388	0.449	0.382
NCI-H23	0.988	0.884	0.939	0.914	0.641	0.313	0.38	0.362	0.366	0.361	0.705	0.762	0.902	0.662	0.901	0.34	0.361	0.455	0.335	0.382

Reference: the supplement of paper PMC10307832
